Blank lines part the entries; values can stand above or below the compound they belong to.
Test system: K24384-001-R-PDC complex spheroid growth
Experiment: Anticancer human tumor K24384-001-R-PDC patient-derived pancreatic adenocarcinoma cell line growth inhibition [AhR]
Details: for IC50: curve of first compound; for viability, T/C: stronger effect = lower value
Procedure, shortened: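 Spheroids combined tumor cells with HUVEC endothelial cells and human MSCs as stroma. AhR antagonists were paired with standard or investigational drugs, each dosed in half-log steps down from near clinical Cmax, or from 10 microM where Cmax was unknown.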

[1] = second compound 0.1 µM, first compound 0.0316 µM
[2] = second compound 0.1 µM, first compound 0.1 µM
[3] = second compound 0.1 µM, first compound 0.316 µM
[4] = second compound 0.1 µM, first compound 1 µM
[5] = second compound 0.1 µM, first compound 3.16 µM
[6] = second compound 0.1 µM, first compound 10 µM
[7] = second compound 0.316 µM, first compound 0.0316 µM
[8] = second compound 0.316 µM, first compound 0.1 µM
[9] = second compound 0.316 µM, first compound 0.316 µM
[10] = second compound 0.316 µM, first compound 1 µM
[11] = second compound 0.316 µM, first compound 3.16 µM
[12] = second compound 0.316 µM, first compound 10 µM
[13] = second compound 1 µM, first compound 0.0316 µM
[14] = second compound 1 µM, first compound 0.1 µM
[15] = second compound 1 µM, first compound 0.316 µM
[16] = second compound 1 µM, first compound 1 µM
[17] = second compound 1 µM, first compound 3.16 µM
[18] = second compound 1 µM, first compound 10 µM
[19] = second compound 3.16 µM, first compound 0.0316 µM
[20] = second compound 3.16 µM, first compound 0.1 µM
[21] = second compound 3.16 µM, first compound 0.316 µM
[22] = second compound 3.16 µM, first compound 1 µM
[23] = second compound 3.16 µM, first compound 3.16 µM
[24] = second compound 3.16 µM, first compound 10 µM
[25] = second compound 10 µM, first compound 0.0316 µM
[26] = second compound 10 µM, first compound 0.1 µM
[27] = second compound 10 µM, first compound 0.316 µM
[28] = second compound 10 µM, first compound 1 µM
[29] = second compound 10 µM, first compound 3.16 µM
[30] = second compound 10 µM, first compound 10 µM
[31] = second compound 0.1 µM, first compound 0.00949 µM
[32] = second compound 0.1 µM, first compound 0.03 µM
[33] = second compound 0.1 µM, first compound 0.0949 µM
[34] = second compound 0.1 µM, first compound 0.3 µM
[35] = second compound 0.1 µM, first compound 0.949 µM
[36] = second compound 0.1 µM, first compound 3 µM
[37] = second compound 0.316 µM, first compound 0.00949 µM
[38] = second compound 0.316 µM, first compound 0.03 µM
[39] = second compound 0.316 µM, first compound 0.0949 µM
[40] = second compound 0.316 µM, first compound 0.3 µM
[41] = second compound 0.316 µM, first compound 0.949 µM
[42] = second compound 0.316 µM, first compound 3 µM
[43] = second compound 1 µM, first compound 0.00949 µM
[44] = second compound 1 µM, first compound 0.03 µM
[45] = second compound 1 µM, first compound 0.0949 µM
[46] = second compound 1 µM, first compound 0.3 µM
[47] = second compound 1 µM, first compound 0.949 µM
[48] = second compound 1 µM, first compound 3 µM
[49] = second compound 3.16 µM, first compound 0.00949 µM
[50] = second compound 3.16 µM, first compound 0.03 µM
[51] = second compound 3.16 µM, first compound 0.0949 µM
[52] = second compound 3.16 µM, first compound 0.3 µM
[53] = second compound 3.16 µM, first compound 0.949 µM
[54] = second compound 3.16 µM, first compound 3 µM
[55] = second compound 10 µM, first compound 0.00949 µM
[56] = second compound 10 µM, first compound 0.03 µM
[57] = second compound 10 µM, first compound 0.0949 µM
[58] = second compound 10 µM, first compound 0.3 µM
[59] = second compound 10 µM, first compound 0.949 µM
[60] = second compound 10 µM, first compound 3 µM
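Throughout, for viability, T/C: percent of DMSO vehicle-treated spheroid viability set as 100%.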

IC50 (second compound 0.1 µM): 3.22 µM
IC50 (second compound 0.316 µM): 4.43 µM
IC50 (second compound 1 µM): 4.74 µM
IC50 (second compound 3.16 µM): 1.27 µM
IC50 (second compound 10 µM): < 0.0316 µM
SMILES: CC1COCCN1c1cc(C2(S(C)(=N)=O)CC2)nc(-c2ccnc3[nH]ccc23)n1 (stereo not given) + Cc1cncc(-c2nc(NCCc3c[nH]c4ccccc34)c3ncn(C(C)C)c3n2)c1
viability, T/C [1]: 97.7%
viability, T/C [2]: 105%
viability, T/C [3]: 105%
viability, T/C [4]: 84.1%
viability, T/C [5]: 51.2%
viability, T/C [6]: 32.2%
viability, T/C [7]: 94.7%
viability, T/C [8]: 102%
viability, T/C [9]: 96.3%
viability, T/C [10]: 87.3%
viability, T/C [11]: 58.8%
viability, T/C [12]: 29.1%
viability, T/C [13]: 116%
viability, T/C [14]: 113%
viability, T/C [15]: 118%
viability, T/C [16]: 95%
viability, T/C [17]: 61.1%
viability, T/C [18]: 31.1%
viability, T/C [19]: 80.6%
viability, T/C [20]: 74.8%
viability, T/C [21]: 70%
viability, T/C [22]: 52%
viability, T/C [23]: 37.8%
viability, T/C [24]: 25.9%
viability, T/C [25]: 10.3%
viability, T/C [26]: 11.3%
viability, T/C [27]: 11.8%
viability, T/C [28]: 11.8%
viability, T/C [29]: 8.29%
viability, T/C [30]: 10.9%

IC50 (second compound 0.1 µM): > 3 µM
IC50 (second compound 0.316 µM): > 3 µM
IC50 (second compound 1 µM): > 3 µM
IC50 (second compound 3.16 µM): > 3 µM
IC50 (second compound 10 µM): < 0.00949 µM
SMILES: CCN(c1cc(-c2ccc(CN3CCOCC3)cc2)cc(C(=O)NCc2c(C)cc(C)[nH]c2=O)c1C)C1CCOCC1 + Cc1cncc(-c2nc(NCCc3c[nH]c4ccccc34)c3ncn(C(C)C)c3n2)c1
viability, T/C [31]: 118%
viability, T/C [32]: 126%
viability, T/C [33]: 129%
viability, T/C [34]: 115%
viability, T/C [35]: 130%
viability, T/C [36]: 133%
viability, T/C [37]: 138%
viability, T/C [38]: 139%
viability, T/C [39]: 150%
viability, T/C [40]: 132%
viability, T/C [41]: 120%
viability, T/C [42]: 108%
viability, T/C [43]: 126%
viability, T/C [44]: 150%
viability, T/C [45]: 144%
viability, T/C [46]: 133%
viability, T/C [47]: 128%
viability, T/C [48]: 120%
viability, T/C [49]: 116%
viability, T/C [50]: 101%
viability, T/C [51]: 120%
viability, T/C [52]: 113%
viability, T/C [53]: 101%
viability, T/C [54]: 96.1%
viability, T/C [55]: 18.7%
viability, T/C [56]: 17.1%
viability, T/C [57]: 17.3%
viability, T/C [58]: 11.9%
viability, T/C [59]: 10.1%
viability, T/C [60]: 8.09%

The next lines start with the compound.

SMILES: CC1(C)CCC(CN2CCN(c3ccc(C(=O)NS(=O)(=O)c4ccc(NCC5CCOCC5)c([N+](=O)[O-])c4)c(Oc4cnc5[nH]ccc5c4)c3)CC2)=C(c2ccc(Cl)cc2)C1 + Cc1cncc(-c2nc(NCCc3c[nH]c4ccccc34)c3ncn(C(C)C)c3n2)c1
IC50 (second compound 0.1 µM): 6.2 µM
IC50 (second compound 0.316 µM): 5.76 µM
IC50 (second compound 1 µM): 7.2 µM
IC50 (second compound 3.16 µM): 7.67 µM
IC50 (second compound 10 µM): < 0.0316 µM
viability, T/C [1]: 137%
viability, T/C [2]: 128%
viability, T/C [3]: 129%
viability, T/C [4]: 86.7%
viability, T/C [5]: 101%
viability, T/C [6]: 22%
viability, T/C [7]: 134%
viability, T/C [8]: 140%
viability, T/C [9]: 126%
viability, T/C [10]: 95.5%
viability, T/C [11]: 92.7%
viability, T/C [12]: 18.6%
viability, T/C [13]: 117%
viability, T/C [14]: 157%
viability, T/C [15]: 137%
viability, T/C [16]: 122%
viability, T/C [17]: 119%
viability, T/C [18]: 23.1%
viability, T/C [19]: 116%
viability, T/C [20]: 148%
viability, T/C [21]: 138%
viability, T/C [22]: 119%
viability, T/C [23]: 124%
viability, T/C [24]: 27.5%
viability, T/C [25]: 20.5%
viability, T/C [26]: 21%
viability, T/C [27]: 16.6%
viability, T/C [28]: 19.1%
viability, T/C [29]: 19.9%
viability, T/C [30]: 25%

SMILES: Nc1ncn(C2CC(O)C(CO)S2)c(=O)n1 (stereo not given) + Cc1cncc(-c2nc(NCCc3c[nH]c4ccccc34)c3ncn(C(C)C)c3n2)c1
IC50 (second compound 0.1 µM): > 0.3 µM
IC50 (second compound 0.316 µM): > 0.3 µM
IC50 (second compound 1 µM): > 0.3 µM
IC50 (second compound 3.16 µM): < 0.000949 µM
IC50 (second compound 10 µM): < 0.000949 µM
viability, T/C (second compound 0.1 µM, first compound 0.000949 µM): 122%
viability, T/C (second compound 0.1 µM, first compound 0.003 µM): 126%
viability, T/C [31]: 116%
viability, T/C [32]: 101%
viability, T/C [33]: 78.1%
viability, T/C [34]: 73.5%
viability, T/C (second compound 0.316 µM, first compound 0.000949 µM): 134%
viability, T/C (second compound 0.316 µM, first compound 0.003 µM): 137%
viability, T/C [37]: 122%
viability, T/C [38]: 119%
viability, T/C [39]: 98.1%
viability, T/C [40]: 84%
viability, T/C (second compound 1 µM, first compound 0.000949 µM): 173%
viability, T/C (second compound 1 µM, first compound 0.003 µM): 162%
viability, T/C [43]: 177%
viability, T/C [44]: 129%
viability, T/C [45]: 111%
viability, T/C [46]: 96%
viability, T/C (second compound 3.16 µM, first compound 0.000949 µM): 28.2%
viability, T/C (second compound 3.16 µM, first compound 0.003 µM): 38.4%
viability, T/C [49]: 43.5%
viability, T/C [50]: 28.2%
viability, T/C [51]: 29.9%
viability, T/C [52]: 27.4%
viability, T/C (second compound 10 µM, first compound 0.000949 µM): 18.1%
viability, T/C (second compound 10 µM, first compound 0.003 µM): 28.5%
viability, T/C [55]: 24.7%
viability, T/C [56]: 12.8%
viability, T/C [57]: 15.5%
viability, T/C [58]: 18.5%

SMILES: O=C(C=Cn1cnc(-c2cc(C(F)(F)F)cc(C(F)(F)F)c2)n1)NNc1cnccn1 + Cc1cncc(-c2nc(NCCc3c[nH]c4ccccc34)c3ncn(C(C)C)c3n2)c1
IC50 (second compound 0.1 µM): 0.209 µM
IC50 (second compound 0.316 µM): 0.242 µM
IC50 (second compound 1 µM): 0.229 µM
IC50 (second compound 3.16 µM): 0.196 µM
IC50 (second compound 10 µM): < 0.00949 µM
viability, T/C [31]: 93.8%
viability, T/C [32]: 94.8%
viability, T/C [33]: 73.2%
viability, T/C [34]: 39.3%
viability, T/C [35]: 27.4%
viability, T/C [36]: 23.6%
viability, T/C [37]: 90.8%
viability, T/C [38]: 95.4%
viability, T/C [39]: 72.6%
viability, T/C [40]: 45.3%
viability, T/C [41]: 29.2%
viability, T/C [42]: 24.8%
viability, T/C [43]: 116%
viability, T/C [44]: 111%
viability, T/C [45]: 79.6%
viability, T/C [46]: 40.6%
viability, T/C [47]: 26.4%
viability, T/C [48]: 19.9%
viability, T/C [49]: 94.9%
viability, T/C [50]: 90.6%
viability, T/C [51]: 74.7%
viability, T/C [52]: 35.1%
viability, T/C [53]: 25.1%
viability, T/C [54]: 20.4%
viability, T/C [55]: 9.12%
viability, T/C [56]: 12.6%
viability, T/C [57]: 17.1%
viability, T/C [58]: 16.6%
viability, T/C [59]: 15.1%
viability, T/C [60]: 12.8%

Reference: PubChem BioAssay AID1919009 (Molecular Pharmacology Branch, DTP, NCI, 2023)
